The values that follow come from ChEMBL document CHEMBL5233239, “Matrix metalloproteinase-9 (MMP-9) and its inhibitors in cancer: A minireview” (Eur J Med Chem, 2020).

Test [1] has as its target T1, Matrix metalloproteinase-9 (Homo sapiens, UniProt P14780). In words: Inhibition of MMP-9 (unknown origin).
In test [2] the target is Disintegrin and metalloproteinase domain-containing protein 17 (Homo sapiens, UniProt P78536). Briefly: Inhibition of TACE (unknown origin).
Test [3] has as its target T2, Interstitial collagenase (Homo sapiens, UniProt P03956).
T2 sequence (P03956 whole entry): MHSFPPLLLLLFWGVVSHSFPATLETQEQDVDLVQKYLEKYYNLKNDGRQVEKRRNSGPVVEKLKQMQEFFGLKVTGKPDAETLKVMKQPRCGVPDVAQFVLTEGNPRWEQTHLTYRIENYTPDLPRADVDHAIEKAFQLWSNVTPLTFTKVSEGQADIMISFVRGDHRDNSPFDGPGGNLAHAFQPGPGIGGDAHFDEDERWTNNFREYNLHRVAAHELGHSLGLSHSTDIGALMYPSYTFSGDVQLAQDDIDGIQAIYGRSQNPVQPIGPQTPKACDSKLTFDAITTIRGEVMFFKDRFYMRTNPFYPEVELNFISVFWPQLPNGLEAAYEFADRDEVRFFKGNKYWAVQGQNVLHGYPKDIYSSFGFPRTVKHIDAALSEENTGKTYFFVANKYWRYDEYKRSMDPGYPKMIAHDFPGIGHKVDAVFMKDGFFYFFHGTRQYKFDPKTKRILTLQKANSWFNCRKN
Briefly: Inhibition of MMP-1 (unknown origin).

Test [4] deals with T3, Collagenase 3 (Homo sapiens, UniProt P45452).
Description: Inhibition of MMP-13 (unknown origin)
Test [5] concerns the target T1, Matrix metalloproteinase-9. Briefly: Inhibition of human MMP9 incubated for 1 hrs followed by chromogenic substrate addition and measured after 30 mins by microplate photometer analysis.
In test [6] the target is T4, 72 kDa type IV collagenase (Homo sapiens, UniProt P08253). Briefly: Inhibition of human MMP2 incubated for 1 hrs followed by chromogenic substrate addition and measured after 30 mins by microplate photometer analysis.
T4 sequence (P08253 whole entry): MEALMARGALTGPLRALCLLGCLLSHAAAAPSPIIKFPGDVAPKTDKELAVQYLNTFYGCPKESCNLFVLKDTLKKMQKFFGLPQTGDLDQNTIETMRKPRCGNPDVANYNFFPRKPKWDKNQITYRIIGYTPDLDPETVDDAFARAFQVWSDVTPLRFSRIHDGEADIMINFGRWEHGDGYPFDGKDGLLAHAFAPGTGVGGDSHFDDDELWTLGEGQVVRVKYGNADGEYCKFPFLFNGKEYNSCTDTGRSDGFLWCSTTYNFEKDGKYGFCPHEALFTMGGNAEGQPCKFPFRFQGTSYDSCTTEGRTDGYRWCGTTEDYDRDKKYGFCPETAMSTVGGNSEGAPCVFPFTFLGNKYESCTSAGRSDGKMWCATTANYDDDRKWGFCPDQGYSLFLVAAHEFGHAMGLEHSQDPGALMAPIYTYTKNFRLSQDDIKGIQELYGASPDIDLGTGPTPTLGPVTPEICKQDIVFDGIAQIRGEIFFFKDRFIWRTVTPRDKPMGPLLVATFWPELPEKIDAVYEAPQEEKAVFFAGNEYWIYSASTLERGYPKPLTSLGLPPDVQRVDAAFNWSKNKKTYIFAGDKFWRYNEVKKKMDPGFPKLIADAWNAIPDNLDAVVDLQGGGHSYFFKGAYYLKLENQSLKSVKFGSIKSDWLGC
The target of test [7] is T1, Matrix metalloproteinase-9. Briefly: Inhibition of human MMP9 using Dnp-Pro-Cha-Gly-Cys(ME)-His-Ala-Lys(Nma)-NH2 as substrate preincubated for 0.5 hrs followed by substrate addition and measured after 6 hrs by fluorimeter analysis.
Test [8] addresses T3, Collagenase 3. In words: Inhibition of human MMP13 using Dnp-Pro-Cha-Gly-Cys(ME)-His-Ala-Lys(Nma)-NH2 as substrate preincubated for 0.5 hrs followed by substrate addition and measured after 6 hrs by fluorimeter analysis.
The target in test [9] is T5, Stromelysin-1 (Homo sapiens, UniProt P08254). In words: Inhibition of human MMP3 using (7-methoxycoumarine-4-yl)-Arg-Pro-Lys-Pro-Tyr-Ala-Nva-Trp-Met-Lys(Dnp)-NH2 as substrate preincubated for 0.5 hrs followed by substrate addition and measured after 6 hrs by fluorimeter analysis.
T5 sequence (P08254 whole entry): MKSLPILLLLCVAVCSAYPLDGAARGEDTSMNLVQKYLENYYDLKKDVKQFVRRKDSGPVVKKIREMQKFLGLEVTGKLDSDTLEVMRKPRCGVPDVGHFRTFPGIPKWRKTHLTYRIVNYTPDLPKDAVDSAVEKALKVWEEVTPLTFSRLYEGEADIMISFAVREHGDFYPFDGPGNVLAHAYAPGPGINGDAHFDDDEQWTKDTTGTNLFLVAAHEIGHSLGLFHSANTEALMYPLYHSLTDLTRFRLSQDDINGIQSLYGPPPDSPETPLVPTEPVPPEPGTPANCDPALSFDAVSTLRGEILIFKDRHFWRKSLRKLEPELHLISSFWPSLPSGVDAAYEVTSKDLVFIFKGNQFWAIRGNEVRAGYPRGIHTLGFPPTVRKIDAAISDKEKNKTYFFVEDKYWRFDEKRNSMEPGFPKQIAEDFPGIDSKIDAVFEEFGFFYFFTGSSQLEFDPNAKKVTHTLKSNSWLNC
Test [10] addresses T4, 72 kDa type IV collagenase. Briefly: Inhibition of human MMP2 using Dnp-Pro-Cha-Gly-Cys(ME)-His-Ala-Lys(Nma)-NH2 as substrate preincubated for 0.5 hrs followed by substrate addition and measured after 6 hrs by fluorimeter analysis.
Test [11] deals with T2, Interstitial collagenase. Briefly: Inhibition of human MMP1 using Dnp-Pro-Cha-Gly-Cys(ME)-His-Ala-Lys(Nma)-NH2 as substrate preincubated for 0.5 hrs followed by substrate addition and measured after 6 hrs by fluorimeter analysis.
Test [12] addresses T4, 72 kDa type IV collagenase.
Test [13] deals with T1, Matrix metalloproteinase-9. Briefly: Inhibition of MMP-9 (unknown origin) assessed as inhibition constant using Mca-Pro-Leu-Gly-Dpa-Ala-Arg-NH2 substrate preincubated for 1 hr followed by substrate addition and measured after 1 hr by fluorimetric analysis.
Test [14] addresses T4, 72 kDa type IV collagenase. In words: Inhibition of MMP-2 (unknown origin) assessed as inhibition constant using Mca-Pro-Leu-Gly-Dpa-Ala-Arg-NH2 substrate preincubated for 1 hr followed by substrate addition and measured after 1 hr by fluorimetric analysis.
Test [15] addresses T3, Collagenase 3. In words: Inhibition of human MMP13 using Dnp-Pro-Cha-Gly-Cys(Me)-His-Ala-Lys(Nma)-NH2 substrate by fluorimetric analysis.
Test [16] concerns the target T4, 72 kDa type IV collagenase. In words: Inhibition of human MMP2 using Dnp-Pro-Cha-Gly-Cys(Me)-His-Ala-Lys(Nma)-NH2 substrate by fluorimetric analysis.
The target of test [17] is T2, Interstitial collagenase. Briefly: Inhibition of human MMP1 using Dnp-Pro-Cha-Gly-Cys(Me)-His-Ala-Lys(Nma)-NH2 substrate by fluorimetric analysis.
For test [18], the target named is T5, Stromelysin-1. In words: Inhibition of human MMP3 using (7-methoxycoumarine-4-yl)-Arg-Pro-Lys-Pro-Tyr-Ala-Nva-Trp-Met-Lys(Dnp)-NH2 substrate by fluorimetric analysis.
Test [19] addresses T1, Matrix metalloproteinase-9. In words: Inhibition of human MMP9 using Dnp-Pro-Cha-Gly-Cys(Me)-His-Ala-Lys(Nma)-NH2 substrate by fluorimetric analysis.
In test [20] the target is T1, Matrix metalloproteinase-9. Briefly: Inhibition of recombinant human MMP9 using […] as substrate incubated for 20 to 30 mins by fluorescence microplate reader analysis.
Test [21] addresses T5, Stromelysin-1. In words: Inhibition of recombinant human MMP3 expressed in Escherichia coli BL21 (DE3) using [3H]transferrin as substrate incubated for 3 hrs by scintillation counter analysis.
Another test deals with T6, Matrilysin (Homo sapiens, UniProt P09237).
T6 sequence (P09237 whole entry): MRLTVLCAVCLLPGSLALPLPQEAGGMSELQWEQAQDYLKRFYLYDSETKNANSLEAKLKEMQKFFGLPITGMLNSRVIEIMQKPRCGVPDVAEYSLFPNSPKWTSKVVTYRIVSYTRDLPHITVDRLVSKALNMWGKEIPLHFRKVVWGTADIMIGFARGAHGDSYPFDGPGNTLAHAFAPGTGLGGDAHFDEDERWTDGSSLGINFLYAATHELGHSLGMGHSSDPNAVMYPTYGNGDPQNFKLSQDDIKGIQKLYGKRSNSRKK
In words: Inhibition of recombinant human MMP7 using […] as substrate incubated for 20 to 30 mins by fluorescence microplate reader analysis.

Test [22] concerns the target T2, Interstitial collagenase. In words: Inhibition of recombinant human MMP1 expressed in Escherichia coli BL21 (DE3) using Mca-Pro-Leu-Gly-Leu-Dpa-Ala-Arg-NH2 as substrate incubated for 20 to 30 mins by fluorescence assay.
For test [23], the target named is T3, Collagenase 3. Briefly: Inhibition of recombinant human MMP13 using […] as substrate incubated for 20 to 30 mins by fluorescence microplate reader analysis.
Test [24] has as its target T4, 72 kDa type IV collagenase. In words: Inhibition of MMP-2 (unknown origin) using Ac-PLG-[2-mercapto-4-methylpentanoyl]-LG-OC2H5) as substrate measured upto 20 mins by microplate reader analysis.
Test [25] deals with T1, Matrix metalloproteinase-9. Briefly: Inhibition of MMP-9 (unknown origin) using Ac-PLG-[2-mercapto-4-methylpentanoyl]-LG-OC2H5) as substrate measured upto 20 mins by microplate reader analysis.

T1 sequence (P14780 whole entry, the tested form may be a part): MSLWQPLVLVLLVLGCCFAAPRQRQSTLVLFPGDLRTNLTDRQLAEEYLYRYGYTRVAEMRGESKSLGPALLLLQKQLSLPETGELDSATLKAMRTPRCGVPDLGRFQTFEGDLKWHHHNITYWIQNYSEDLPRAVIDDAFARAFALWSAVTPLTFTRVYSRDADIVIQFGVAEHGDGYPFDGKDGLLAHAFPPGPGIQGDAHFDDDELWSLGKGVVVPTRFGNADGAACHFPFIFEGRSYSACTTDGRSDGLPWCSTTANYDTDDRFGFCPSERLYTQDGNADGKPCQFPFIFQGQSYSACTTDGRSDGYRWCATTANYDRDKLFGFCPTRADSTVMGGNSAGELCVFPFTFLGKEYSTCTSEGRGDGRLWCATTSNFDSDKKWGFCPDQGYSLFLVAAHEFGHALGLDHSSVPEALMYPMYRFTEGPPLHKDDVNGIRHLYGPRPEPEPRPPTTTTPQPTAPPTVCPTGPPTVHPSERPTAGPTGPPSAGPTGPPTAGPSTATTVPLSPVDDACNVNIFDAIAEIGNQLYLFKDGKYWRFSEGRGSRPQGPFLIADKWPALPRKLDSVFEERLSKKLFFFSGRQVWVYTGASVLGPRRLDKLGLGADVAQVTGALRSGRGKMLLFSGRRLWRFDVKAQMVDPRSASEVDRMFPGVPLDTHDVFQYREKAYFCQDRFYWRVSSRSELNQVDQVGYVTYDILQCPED
Chain of Disintegrin and metalloproteinase domain-containing protein 17 (P78536 whole entry, the tested form may be a part): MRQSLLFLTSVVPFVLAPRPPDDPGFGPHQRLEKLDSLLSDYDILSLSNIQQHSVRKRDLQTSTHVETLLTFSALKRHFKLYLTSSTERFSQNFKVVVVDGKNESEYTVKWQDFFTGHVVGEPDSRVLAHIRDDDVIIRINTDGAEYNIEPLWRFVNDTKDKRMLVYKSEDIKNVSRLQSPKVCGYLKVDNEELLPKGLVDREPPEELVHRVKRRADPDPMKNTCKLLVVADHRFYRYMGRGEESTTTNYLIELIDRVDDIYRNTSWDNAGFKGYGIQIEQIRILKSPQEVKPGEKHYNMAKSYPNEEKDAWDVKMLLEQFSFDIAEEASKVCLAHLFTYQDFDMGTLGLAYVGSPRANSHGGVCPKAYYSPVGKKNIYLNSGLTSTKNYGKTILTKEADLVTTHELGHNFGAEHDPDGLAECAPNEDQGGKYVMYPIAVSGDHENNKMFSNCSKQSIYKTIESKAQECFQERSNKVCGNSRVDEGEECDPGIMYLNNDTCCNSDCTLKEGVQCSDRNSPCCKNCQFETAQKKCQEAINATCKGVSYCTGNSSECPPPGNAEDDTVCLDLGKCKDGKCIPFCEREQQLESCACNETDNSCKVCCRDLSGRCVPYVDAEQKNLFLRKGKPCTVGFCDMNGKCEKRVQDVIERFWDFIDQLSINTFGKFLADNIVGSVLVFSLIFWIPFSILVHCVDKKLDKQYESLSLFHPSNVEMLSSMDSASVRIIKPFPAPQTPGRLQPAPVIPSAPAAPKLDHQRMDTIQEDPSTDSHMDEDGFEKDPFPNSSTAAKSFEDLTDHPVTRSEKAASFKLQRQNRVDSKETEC

The compound `CNC(=O)[C@H](Cc1ccccc1)NC(=O)[C@H](CC(C)C)[C@H](CSc1cccs1)C(=O)NO` [BATIMASTAT] registered a half-inhibitory concentration (IC50) in [1] of 0.001 µM.

On to `COc1ccc(S(=O)(=O)N(c2c(C)cc(-c3cccc(C(F)(F)F)c3)cc2C(=O)NO)N(C)C)cc1`, for which the IC50 was determined as 0.633 µM in test [2], 0.074 µM against Interstitial collagenase [3], 0.002 µM in test [1] and 0.039 µM against Collagenase 3 [4].

Consider `O=C(O)CC[C@@H](NC(=O)Cc1ccc(Br)cc1)C(=O)NCc1ccc([N+](=O)[O-])cc1`, for which the IC50 in test [5] was 4.83 µM; in test [6], 6.4 µM.

Regarding `O=C(O)[C@H]1[C@H](CN2C(=O)c3ccccc3C2=O)CC[C@@H]1SCc1ccc(-c2ccc(Cl)cc2)cc1`, the concentration for half-maximal inhibition (IC50) in [7] was 0.013 µM; on Collagenase 3 [8], 0.129 µM; against Stromelysin-1 [9], 0.045 µM; in test [10], 0.073 µM; against Interstitial collagenase [11], 50 µM.

As to `CN(C)c1ccc(-c2cn(-c3ccc(S(=O)(=O)NC(Cc4ccccc4)C(=O)NO)cc3)nn2)cc1` (centres undefined), the concentration for half-maximal inhibition (IC50) in test [12] worked out at 0.00032 µM; in test [1], 0.00106 µM.

On to `CCCCCCCCCC[C@@H](CC(=O)NO)C(=O)N[C@H](C(=O)NC)c1ccccc1`, for which the IC50 in test [13] stood at 0.0002 µM; in test [14], 0.0016 µM.

`COc1ccc(S(=O)(=O)N2CC(C)(C)C(CCSCc3ccccc3)C2C(=O)NO)cc1` (centres undefined): the half-inhibitory concentration (IC50) at Collagenase 3 [15] was found to be 0.0055 µM; in test [16], 0.00164 µM; at Interstitial collagenase [17], 0.198 µM; at Stromelysin-1 [18], 0.0067 µM; in test [19], 0.0009 µM.

For the compound `COc1ccc(S(=O)(=O)N2CCN(c3cccnc3)CC2C(=O)NO)cc1` (centres undefined), the IC50 in [20] was 0.032 µM; on Stromelysin-1 [21], 0.184 µM; on Matrilysin, 27.7 µM; at Interstitial collagenase [22], 0.944 µM; at Collagenase 3 [23] it was 0.057 µM.

Consider `COc1ccc(S(=O)(=O)N(C)c2c(CN3CCOCC3)cc(C)cc2C(=O)NO)cc1`, for which the IC50 in test [2] amounted to 0.174 µM; against Interstitial collagenase [3] it was 0.608 µM; in test [1], 0.005 µM; at Collagenase 3 [4], 0.014 µM.

`COc1ccc(S(=O)(=O)N(Cc2ccccn2)c2c(C)cc(-c3cccc(C(F)(F)F)c3)cc2C(=O)NO)cc1`: the 50% inhibitory concentration (IC50) in test [1] is 0.001 µM; against Collagenase 3 [4], 0.002 µM.

Turning to `O=C(NO)C1(S(=O)(=O)c2ccc(-n3cc(-c4ccc(-c5cncnc5)cc4)nn3)cc2)CCOCC1`, the IC50 came to 0.0005 µM in test [24] and 0.0008 µM in test [25].

For orientation: IC50 means the midpoint of a concentration-inhibition curve.
